Measured values: ChEMBL document CHEMBL3352227, “Synthesis, antimycobacterial and antibacterial evaluation of l-[(1R, 2S)-2-fluorocyclopropyl]fluoroquinolone derivatives containing an oxime functional moiety” (Eur J Med Chem, 2014)
In brackets after ≈: the same amount, converted by molar mass.

Legend:
Escherichia coli [1] = assay: Antibacterial activity against extended-spectrum beta-lactamase producing Escherichia coli 12-14 after 18 to 24 hrs by standard twofold serial dilution method; assay type: functional
Staphylococcus aureus [2] = assay: Antibacterial activity against methicillin-resistant Staphylococcus aureus 12-2 after 18 to 24 hrs by standard twofold serial dilution method; assay type: functional
Pseudomonas aeruginosa [3] = assay: Antibacterial activity against Pseudomonas aeruginosa 12-14 after 18 to 24 hrs by standard twofold serial dilution method; assay type: functional
Staphylococcus aureus [4] = assay: Antibacterial activity against methicillin-resistant Staphylococcus aureus 12-4 after 18 to 24 hrs by standard twofold serial dilution method; assay type: functional
[5] = system: Staphylococcus epidermidis; assay: Antibacterial activity against methicillin-resistant Staphylococcus epidermidis 12-1 after 18 to 24 hrs by standard twofold serial dilution method; assay type: functional
Staphylococcus aureus [6] = assay: Antibacterial activity against Staphylococcus aureus ATCC 25923 after 18 to 24 hrs by standard twofold serial dilution method; assay type: functional
Escherichia coli [7] = assay: Antibacterial activity against extended-spectrum beta-lactamase producing Escherichia coli 12-2 after 18 to 24 hrs by standard twofold serial dilution method; assay type: functional
[8] = system: Mycobacterium tuberculosis; assay: Antimycobacterial activity against Mycobacterium tuberculosis H37Rv ATCC 27294 by MABA method; assay type: functional
[9] = system: Staphylococcus epidermidis; assay: Antibacterial activity against methicillin-sensitive Staphylococcus epidermidis 12-8 after 18 to 24 hrs by standard twofold serial dilution method; assay type: functional
[10] = Solubility of the compound; assay type: physicochemical
Streptococcus pneumoniae [11] = assay: Antibacterial activity against Streptococcus pneumoniae ATCC 49619 after 18 to 24 hrs by standard twofold serial dilution method; assay type: functional
Escherichia coli [12] = assay: Antibacterial activity against extended-spectrum beta-lactamase producing Escherichia coli 12-15 after 18 to 24 hrs by standard twofold serial dilution method; assay type: functional
Staphylococcus aureus [13] = assay: Antibacterial activity against methicillin-sensitive Staphylococcus aureus 12-1 infected in mouse dosed orally twice at 0 and 6 hrs after infection; assay type: functional; conditions: 12-1, po
Klebsiella pneumoniae [14] = assay: Antibacterial activity against Klebsiella pneumoniae 12-4 after 18 to 24 hrs by standard twofold serial dilution method; assay type: functional
Klebsiella pneumoniae [15] = assay: Antibacterial activity against extended-spectrum beta-lactamase producin Klebsiella pneumoniae 12-4 after 18 to 24 hrs by standard twofold serial dilution method; assay type: functional
Escherichia coli [16] = assay: Antibacterial activity against extended-spectrum beta-lactamase producing Escherichia coli 12-3 after 18 to 24 hrs by standard twofold serial dilution method; assay type: functional
Staphylococcus aureus [17] = assay: Antibacterial activity against methicillin-resistant Staphylococcus aureus 12-5 after 18 to 24 hrs by standard twofold serial dilution method; assay type: functional
Staphylococcus aureus [18] = assay: Antibacterial activity against methicillin-sensitive Staphylococcus aureus 12-2 after 18 to 24 hrs by standard twofold serial dilution method; assay type: functional
[19] = system: Staphylococcus epidermidis; assay: Antibacterial activity against methicillin-sensitive Staphylococcus epidermidis 12-1 after 18 to 24 hrs by standard twofold serial dilution method; assay type: functional
Staphylococcus aureus [20] = assay: Antibacterial activity against methicillin-sensitive Staphylococcus aureus 12-5 after 18 to 24 hrs by standard twofold serial dilution method; assay type: functional
Klebsiella pneumoniae [21] = assay: Antibacterial activity against Klebsiella pneumoniae 12-2 after 18 to 24 hrs by standard twofold serial dilution method; assay type: functional
[22] = system: Staphylococcus epidermidis; assay: Antibacterial activity against methicillin-sensitive Staphylococcus epidermidis 12-6 after 18 to 24 hrs by standard twofold serial dilution method; assay type: functional
Streptococcus pneumoniae [23] = assay: Antibacterial activity against Streptococcus pneumoniae 12-10 infected in mouse dosed orally twice at 0 and 6 hrs after infection; assay type: functional; conditions: 12-10, po
[24] = system: Staphylococcus epidermidis; assay: Antibacterial activity against methicillin-resistant Staphylococcus epidermidis 12-6 after 18 to 24 hrs by standard twofold serial dilution method; assay type: functional
[25] = system: Staphylococcus epidermidis; assay: Antibacterial activity against methicillin-sensitive Staphylococcus epidermidis 12-3 after 18 to 24 hrs by standard twofold serial dilution method; assay type: functional
Staphylococcus aureus [26] = assay: Antibacterial activity against methicillin-sensitive Staphylococcus aureus 12-4 after 18 to 24 hrs by standard twofold serial dilution method; assay type: functional
Escherichia coli [27] = assay: Antibacterial activity against Escherichia coli 12-1 infected in mouse dosed orally twice at 0 and 6 hrs after infection; assay type: functional; conditions: 12-1, po
Staphylococcus aureus [28] = assay: Antibacterial activity against methicillin-resistant Staphylococcus aureus 12-5 infected in mouse dosed orally twice at 0 and 6 hrs after infection; assay type: functional; conditions: 12-5, po
Klebsiella pneumoniae [29] = assay: Antibacterial activity against extended-spectrum beta-lactamase producin Klebsiella pneumoniae 12-7 after 18 to 24 hrs by standard twofold serial dilution method; assay type: functional
Escherichia coli [30] = assay: Antibacterial activity against Escherichia coli ATCC 25922 after 18 to 24 hrs by standard twofold serial dilution method; assay type: functional
Pseudomonas aeruginosa [31] = assay: Antibacterial activity against Pseudomonas aeruginosa 12-12 after 18 to 24 hrs by standard twofold serial dilution method; assay type: functional
[32] = system: Staphylococcus epidermidis; assay: Antibacterial activity against methicillin-resistant Staphylococcus epidermidis 12-1 infected in mouse dosed orally twice at 0 and 6 hrs after infection; assay type: functional; conditions: 12-1, po
Klebsiella pneumoniae [33] = assay: Antibacterial activity against Klebsiella pneumoniae 12-1 infected in mouse dosed orally twice at 0 and 6 hrs after infection; assay type: functional; conditions: 12-1, po
Klebsiella pneumoniae [34] = assay: Antibacterial activity against extended-spectrum beta-lactamase producin Klebsiella pneumoniae 12-3 after 18 to 24 hrs by standard twofold serial dilution method; assay type: functional
Streptococcus pneumoniae [35] = assay: Antibacterial activity against Streptococcus pneumoniae 12-18 after 18 to 24 hrs by standard twofold serial dilution method; assay type: functional
Staphylococcus aureus [36] = assay: Antibacterial activity against methicillin-sensitive Staphylococcus aureus 12-1 after 18 to 24 hrs by standard twofold serial dilution method; assay type: functional
Klebsiella pneumoniae [37] = assay: Antibacterial activity against Klebsiella pneumoniae 12-1 after 18 to 24 hrs by standard twofold serial dilution method; assay type: functional
Klebsiella pneumoniae [38] = assay: Antibacterial activity against extended-spectrum beta-lactamase producin Klebsiella pneumoniae 12-14 after 18 to 24 hrs by standard twofold serial dilution method; assay type: functional
Escherichia coli [39] = assay: Antibacterial activity against Escherichia coli 12-1 after 18 to 24 hrs by standard twofold serial dilution method; assay type: functional

CO/N=C1/CCN(c2c(F)cc3c(=O)c(C(=O)O)cn([C@@H]4C[C@@H]4F)c3c2OC)CC1N (some centres undefined)
MIC (Escherichia coli [1]): 16 µg/mL (≈ 36.7 µM) | MIC (Staphylococcus aureus [2]): 2 µg/mL (≈ 4.58 µM) | MIC (Pseudomonas aeruginosa [3]): 4 µg/mL (≈ 9.17 µM) | MIC (Staphylococcus aureus [4]): 2 µg/mL (≈ 4.58 µM) | MIC [5]: 0.5 µg/mL (≈ 1.15 µM) | MIC (Staphylococcus aureus [6]): 0.015 µg/mL (≈ 0.0344 µM) | MIC (Escherichia coli [7]): 32 µg/mL (≈ 73.3 µM) | MIC [8]: 0.25 µg/mL (≈ 0.573 µM) | MIC [9]: 0.25 µg/mL (≈ 0.573 µM) | solubility [10]: 3590 µg/mL (≈ 8230 µM) | MIC (Streptococcus pneumoniae [11]): 0.125 µg/mL (≈ 0.286 µM) | MIC (Escherichia coli [12]): 32 µg/mL (≈ 73.3 µM) | ED50 (Staphylococcus aureus [13]): 11.4 mg/kg | MIC (Klebsiella pneumoniae [14]): 0.5 µg/mL (≈ 1.15 µM) | MIC (Klebsiella pneumoniae [15]): 16 µg/mL (≈ 36.7 µM) | MIC (Escherichia coli [16]): 32 µg/mL (≈ 73.3 µM) | MIC (Staphylococcus aureus [17]): 2 µg/mL (≈ 4.58 µM) | MIC (Staphylococcus aureus [18]): < 8 ng/mL | MIC [19]: < 8 ng/mL | MIC (Staphylococcus aureus [20]): < 8 ng/mL | MIC (Klebsiella pneumoniae [21]): 0.5 µg/mL (≈ 1.15 µM) | MIC [22]: < 8 ng/mL | ED50 (Streptococcus pneumoniae [23]): 25.3 mg/kg | MIC [24]: 1 µg/mL (≈ 2.29 µM) | MIC [25]: < 8 ng/mL | MIC (Staphylococcus aureus [26]): < 8 ng/mL | ED50 (Escherichia coli [27]): 12.1 mg/kg | ED50 (Staphylococcus aureus [28]): 26 mg/kg | MIC (Klebsiella pneumoniae [29]): 2 µg/mL (≈ 4.58 µM) | MIC (Escherichia coli [30]): 0.06 µg/mL (≈ 0.137 µM) | MIC (Pseudomonas aeruginosa [31]): 4 µg/mL (≈ 9.17 µM) | ED50 [32]: 25.4 mg/kg | ED50 (Klebsiella pneumoniae [33]): 21.1 mg/kg | MIC (Klebsiella pneumoniae [34]): 16 µg/mL (≈ 36.7 µM) | MIC (Streptococcus pneumoniae [35]): 1 µg/mL (≈ 2.29 µM) | MIC (Staphylococcus aureus [36]): < 8 ng/mL | MIC (Klebsiella pneumoniae [37]): 0.25 µg/mL (≈ 0.573 µM) | MIC (Klebsiella pneumoniae [38]): 64 µg/mL (≈ 147 µM) | MIC (Escherichia coli [39]): 0.5 µg/mL (≈ 1.15 µM)
